The source of these data is patent US5494895A, “Scorpion peptide margatoxin with immunosuppressant activity” (Merck & Co., Inc., priority 1993, dated 1996).

SMILES strings stand for the structures. Peptide text beside a SMILES is read from it.

In test [1] the target is T1, Kv 1.3 of human T lymphocytes (Homo sapiens, UniProt P22001).
T1 construct: endogenous in cells; host or cells: purified human peripheral blood T lymphocytes
In words: [125I]ChTX binding to human T cells. As to the method:
In addition to being tested for competition for [^125 I]ChTX binding to rat brain and bovine aortic smooth muscle, MgTX was evaluated for its effects on [^125 I]ChTX binding to human T lymphocytes and to plasma membranes prepared from Jurkat cells, a human T-cell leukemia line. MgTX competition for [^125 I]ChTX binding to human T cells was performed as described by Lin, et al., J. Exp. Med. 177, 637-645, 1993. Binding experiments using monocyte-depleted, E-rosetted human T cells were carried out in isotonic sucrose with 5 mM KCl, 5 mM NaCl, 6 mM glucose and 10 mM HEPES, pH 8.0 until equilibrium was achieved. The procedure for binding to plasma membranes from Jurkat Cells is similar except that the binding solution was 3 mM KCl, 7 mM NaCl, 10 mM HEPES, pH 8.0. Free ligand was removed from bound by filtration through Whatman GF/C glass fiber filters (pretreated with 0.5% polyethylenimine). […] Hill coefficients were 2 in both cases.

Test [2] has as its system Kv 3 (rat Kv 1.3; human Kv 1.3). In words: Two-electrode voltage clamp of Xenopus oocytes expressing Kv 3 (Kv 1.3). As to conditions: read-out: IC50 on cloned channel Kv 3. It is filed as cell-based, rat and human. The procedure: (§1) Ionic currents were also recorded from Xenopus oocytes that had been injected with RNA transcribed in vitro from one or another of the following K^+ channel cDNA clones. Kv 1 (rat Kv 1.5), rat or human Kv 3 (rat Kv 1.3; human Kv 1.3), Kv 4 (rat Kv 3.1 ), rat ISK, Kv 2 (rat Kv 1.6) or Drosophila Shaker-H4. The names of the clones are listed as originally published, with the appropriate parenthetical designation according to the unified gene nomenclature proposed by Chandy. Shaker-H4 is a splice variant from the original Drosophila Shaker K^+ channel gene. Kv 1.3 is the ChTX-sensitive delayed rectifier current found in rat and human T lymphocytes (data from rat and human clones were indistinguishable and were combined) and it is a member of the Shaker family. Kv 1.5 is a channel cloned from rat (Swanson et al., Neuron, 4, 929, 1990) and is another member of the Shaker family. The Kv 1.5 transcript has been detected in pancreatic β cells as described in Philipson, et al., Proc. Natl. Acad. Sci. U.S.A. 88, 53, 1991. […] The ISK transcript has been detected in lymphocytes (Attali et al., J. Biol. Chem,. 267, 8650, 1992), but no evidence of the IKs current has been found in those cells.
(§2) Methods for oocyte isolation and micro-injection were previously described in Goldin, Meth. […] Currents expressed in oocytes were measured using a DAGAN model CA-1 two-electrode voltage clamp. […]
(In general: Two-electrode voltage clamp is typically applied to oocytes expressing channels or transporters.)

A further test deals with T2, Kv 1 (rat Kv 1.5) (Rattus norvegicus, UniProt P19024).
T2 construct: expressed in transfected cells; host or cells: Xenopus oocytes injected with RNA transcribed in vitro from the cDNA clone
In words: Two-electrode voltage clamp of Xenopus oocytes expressing Kv 1 (Kv 1.5). Format: cell-based. As to conditions: 200 nM MgTX. The procedure: as §1, §2

The target in another test is T3, Kv 3.1 (Rattus norvegicus, UniProt P25122).
T3 construct: expressed in transfected cells; host or cells: Xenopus oocytes injected with RNA transcribed in vitro from the cDNA clone
T3 sequence (P25122 1-585): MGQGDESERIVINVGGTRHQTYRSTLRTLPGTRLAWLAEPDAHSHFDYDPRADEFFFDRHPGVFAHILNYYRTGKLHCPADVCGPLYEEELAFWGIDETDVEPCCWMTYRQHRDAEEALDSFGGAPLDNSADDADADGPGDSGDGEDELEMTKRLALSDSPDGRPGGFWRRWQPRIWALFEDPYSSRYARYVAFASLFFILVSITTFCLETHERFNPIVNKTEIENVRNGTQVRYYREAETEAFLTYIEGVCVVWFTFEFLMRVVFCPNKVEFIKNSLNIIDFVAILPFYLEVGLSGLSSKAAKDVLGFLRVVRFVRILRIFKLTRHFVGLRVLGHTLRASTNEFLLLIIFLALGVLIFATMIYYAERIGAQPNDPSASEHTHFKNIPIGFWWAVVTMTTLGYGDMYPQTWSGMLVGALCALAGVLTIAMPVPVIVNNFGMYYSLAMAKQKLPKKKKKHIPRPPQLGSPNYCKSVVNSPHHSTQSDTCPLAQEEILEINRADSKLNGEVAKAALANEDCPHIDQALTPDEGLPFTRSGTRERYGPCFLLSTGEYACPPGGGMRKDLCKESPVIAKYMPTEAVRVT
The test is described as follows: Two-electrode voltage clamp of Xenopus oocytes expressing Kv 4 (Kv 3.1). It is filed as cell-based. As to conditions: 200 nM MgTX. The procedure: as §1, §2

In a further test the target is T4, Kv 1.6 (Rattus norvegicus, UniProt P17659).
T4 construct: expressed in transfected cells; host or cells: Xenopus oocytes injected with RNA transcribed in vitro from the cDNA clone
In words: Two-electrode voltage clamp of Xenopus oocytes expressing Kv 2 (Kv 1.6). Format: cell-based. As to conditions: read-out: concentration at which Kv 1.6 was half blocked. As to the method:
as §1, §2

For test [3], the system named is three different ChTX-sensitive, Ca2+-activated K+ channels of lymphocytes. As to conditions: even at 100 nM; cited from earlier work.
For the next test, the system named is human T-lymphocytes. As to conditions: cited from earlier work.

T1 sequence (P22001 whole entry): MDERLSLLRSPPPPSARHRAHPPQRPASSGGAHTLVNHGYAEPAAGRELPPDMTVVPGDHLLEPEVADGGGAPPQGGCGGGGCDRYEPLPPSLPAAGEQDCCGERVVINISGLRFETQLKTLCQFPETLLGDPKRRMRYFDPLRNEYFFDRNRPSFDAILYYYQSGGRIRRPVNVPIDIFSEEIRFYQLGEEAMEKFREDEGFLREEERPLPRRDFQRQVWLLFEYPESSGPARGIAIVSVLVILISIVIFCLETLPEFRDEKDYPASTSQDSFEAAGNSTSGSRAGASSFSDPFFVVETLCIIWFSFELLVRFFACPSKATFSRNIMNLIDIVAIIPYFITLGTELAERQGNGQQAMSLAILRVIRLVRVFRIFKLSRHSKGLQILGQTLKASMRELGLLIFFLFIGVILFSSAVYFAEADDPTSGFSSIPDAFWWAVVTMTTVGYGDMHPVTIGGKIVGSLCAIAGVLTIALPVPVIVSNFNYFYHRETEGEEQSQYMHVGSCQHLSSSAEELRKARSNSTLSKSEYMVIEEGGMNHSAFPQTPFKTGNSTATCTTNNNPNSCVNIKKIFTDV
T2 sequence (P19024 whole entry): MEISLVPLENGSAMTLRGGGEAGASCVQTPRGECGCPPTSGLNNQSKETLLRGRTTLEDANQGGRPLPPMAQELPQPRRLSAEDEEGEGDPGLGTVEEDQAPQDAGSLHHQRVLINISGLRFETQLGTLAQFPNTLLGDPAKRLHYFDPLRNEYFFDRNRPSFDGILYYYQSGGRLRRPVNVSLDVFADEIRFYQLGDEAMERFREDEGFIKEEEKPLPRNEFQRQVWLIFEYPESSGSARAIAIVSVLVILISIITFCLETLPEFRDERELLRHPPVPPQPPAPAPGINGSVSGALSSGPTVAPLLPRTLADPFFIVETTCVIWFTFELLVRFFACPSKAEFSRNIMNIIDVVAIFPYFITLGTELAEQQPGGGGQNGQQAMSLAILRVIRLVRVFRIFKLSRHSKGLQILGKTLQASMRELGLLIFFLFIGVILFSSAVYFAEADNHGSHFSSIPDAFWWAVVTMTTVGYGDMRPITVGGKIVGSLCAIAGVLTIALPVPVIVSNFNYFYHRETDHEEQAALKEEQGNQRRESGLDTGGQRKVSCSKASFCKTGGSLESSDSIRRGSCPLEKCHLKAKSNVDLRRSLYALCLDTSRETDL
T4 sequence (P17659 whole entry): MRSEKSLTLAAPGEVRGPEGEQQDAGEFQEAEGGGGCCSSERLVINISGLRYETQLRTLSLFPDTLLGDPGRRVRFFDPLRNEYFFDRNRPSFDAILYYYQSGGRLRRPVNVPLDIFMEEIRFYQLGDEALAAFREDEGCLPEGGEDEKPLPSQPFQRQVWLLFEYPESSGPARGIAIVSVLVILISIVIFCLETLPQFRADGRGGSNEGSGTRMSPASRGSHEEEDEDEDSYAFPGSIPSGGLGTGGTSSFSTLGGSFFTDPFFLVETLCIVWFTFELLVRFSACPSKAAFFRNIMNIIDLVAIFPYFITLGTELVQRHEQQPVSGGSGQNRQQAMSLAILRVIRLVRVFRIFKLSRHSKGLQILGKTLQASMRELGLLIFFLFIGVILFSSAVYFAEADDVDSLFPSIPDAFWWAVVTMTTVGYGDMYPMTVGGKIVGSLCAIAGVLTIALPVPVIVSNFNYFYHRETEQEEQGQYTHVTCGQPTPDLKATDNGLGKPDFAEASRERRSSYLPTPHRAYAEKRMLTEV

As for `CC[C@H](C)[C@H](NC(=O)[C@@H](N)[C@@H](C)O)C(=O)N[C@H](C(=O)N[C@@H](CC(N)=O)C(=O)N[C@H](C(=O)N[C@@H](CCCCN)C(=O)N[C@H]1CSSC[C@@H]2NC(=O)[C@H](CCCCN)NC(=O)[C@H](C)NC(=O)CNC(=O)[C@H](C)NC(=O)[C@H](CO)NC(=O)[C@H](CCC(N)=O)NC(=O)CNC(=O)[C@H](Cc3ccccc3)NC(=O)[C@H](CCC(N)=O)NC(=O)[C@H](C)NC(=O)[C@H](CCCCN)NC(=O)[C@@H]3CSSC[C@@H](C(=O)N[C@@H](Cc4ccc(O)cc4)C(=O)N4CCC[C@H]4C(=O)N[C@@H](Cc4c[nH]cn4)C(=O)O)NC(=O)[C@H](CCCCN)NC(=O)[C@H](CSSC[C@H](NC(=O)[C@H](CCC(N)=O)NC(=O)[C@H](CCCCN)NC(=O)[C@@H]4CCCN4C(=O)[C@H](CO)NC(=O)[C@H]([C@@H](C)O)NC1=O)C(=O)N[C@@H](CC(C)C)C(=O)N1CCC[C@H]1C(=O)N1CCC[C@H]1C(=O)N3)NC(=O)[C@H](CCCCN)NC(=O)CNC(=O)[C@H](CC(N)=O)NC(=O)[C@H](CCSC)NC2=O)C(C)C)[C@@H](C)CC` [MgTX, Margatoxin] (HELM PEPTIDE1{T.I.I.N.V.K.C.T.S.P.K.Q.C.L.P.P.C.K.A.Q.F.G.Q.S.A.G.A.K.C.M.N.G.K.C.K.C.Y.P.H}$PEPTIDE1,PEPTIDE1,7:R3-29:R3|PEPTIDE1,PEPTIDE1,13:R3-34:R3|PEPTIDE1,PEPTIDE1,17:R3-36:R3$$$V2.0; N-terminus and C-terminus assumed; bridges inferred), the Hill coefficient in test [1] is listed as 2. Besides, the IC50 is 0.0014 nM in test [1] (isotonic sucrose, pH 8.0, read-out: IC50 for inhibition of [125I]ChTX binding); around 0.03 nM in test [2]; 5 nM at Kv 1.6. Moreover, the “sensitivity of cloned channel Kv 5 to block” value on Kv 1 (rat Kv 1.5) was “completely insensitive”. Also, the “sensitivity of cloned channel Kv 3.1 to block” value at Kv 3.1 is reported as “completely insensitive”. Also, the “effect on three ChTX-sensitive Ca2+-activated K+ channels of lymphocytes” value in test [3] was “no effect”. In addition, the “effect on interleukin 2 production” value in the test on human T-lymphocytes is “inhibits interleukin 2 production”.

The Hill coefficient is the slope factor of the fitted curve.
